Drawing on patent US12077503B2, “Substituted cyclic amides and their use as herbicides” (FMC CORPORATION, priority 2015, dated 2024), this text covers pest or weed control, Corn plant response rating (crop injury, 0 = no effect, 100 = complete kill) and melting point for 2 compounds.

Each structure is given as a SMILES string.

Series [1] concerns barnyardgrass (Echinochloa crus-galli). The experiment in a line: Test A postemergence. It is filed as in vivo. The conditions noted are these: Echinochloa crus-galli, post-emergence, 240 h, 125 g ai/ha, Postemergence; visual injury after approximately 10 d; 0 to 100 scale where 0 is no effect and 100 is complete control; read-out: Plant response rating, Barnyardgrass. In short, it runs like this:
(§1)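 Greenhouse, ~10 d after spray; visual injury vs untreated controls, 0 = no effect, 100 = complete control. Preemergence: directed soil spray over planted seeds. Postemergence: plants 2–10 cm, 1–2 leaf stage. Loam/sand blend. Compound in non-phytotoxic solvent with surfactant.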

In series [2] the test system is blackgrass (Alopecurus myosuroides). Briefly: Test A postemergence. It is filed as in vivo. The conditions noted are these: Alopecurus myosuroides, post-emergence, 240 h, 125 g ai/ha, Postemergence; visual injury after approximately 10 d; 0 to 100 scale where 0 is no effect and 100 is complete control; read-out: Plant response rating, Blackgrass. The method in brief: as §1

For another series, the system named is corn (Zea mays). Briefly: Test A postemergence. The following applies: Zea mays, post-emergence, 240 h, 125 g ai/ha, Postemergence; visual injury after approximately 10 d; 0 to 100 scale where 0 is no effect and 100 is complete control. Type of series: in vivo. The method in brief: as §1
For series [3], the system named is ragweed (common ragweed, Ambrosia elatior). Briefly: Test A postemergence. It is filed as in vivo. The following applies: Ambrosia artemisiifolia, post-emergence, 240 h, 125 g ai/ha, Postemergence; visual injury after approximately 10 d; 0 to 100 scale where 0 is no effect and 100 is complete control; read-out: Plant response rating, Ragweed. In short, it runs like this:
as §1

For series [4], the system named is ryegrass, Italian (Italian ryegrass, Lolium multiflorum). Briefly: Test A postemergence. Type of series: in vivo. The conditions noted are these: Lolium multiflorum, post-emergence, 240 h, 125 g ai/ha, Postemergence; visual injury after approximately 10 d; 0 to 100 scale where 0 is no effect and 100 is complete control; read-out: Plant response rating, Ryegrass, Italian. The method in brief:
as §1

As a reminder, the melting point is the temperature of the solid-liquid transition. Take `CN1C[C@H](c2ccc(C(F)(F)F)cc2)[C@@H](C(=O)Nc2cccc(F)c2Cl)C1=O` [Compound 938]: the melting point was 169 to 172 °C. The pest or weed control at 125 g/ha in series [1] amounted to 80%. In series [2], the pest or weed control at 125 g/ha was 40%. Also, the Corn plant response rating (crop injury, 0 = no effect, 100 = complete kill) at 125 g/ha in the series with corn (Zea mays) came out at 60%. For the same compound, the pest or weed control at 125 g/ha in series [3] was 0%. For the same compound, in series [4], the pest or weed control at 125 g/ha was 20%.
Take `CCc1ccccc1NC(=O)[C@H]1C(=O)N(C)C[C@@H]1c1ccc(C(F)(F)F)cc1` [Compound 935]: the melting point fell in the range of 116 to 119 °C. The pest or weed control at 125 g/ha in series [1] is 70%. Moreover, in series [2], the pest or weed control at 125 g/ha was 60%. This compound also came in with a Corn plant response rating (crop injury, 0 = no effect, 100 = complete kill) at 125 g/ha in the series on corn (Zea mays) of 40%. Moreover, the pest or weed control at 125 g/ha in series [3] worked out at 0%. Besides, the pest or weed control at 125 g/ha in series [4] is 20%.
